Where a name gives a salt, the structure may show the parent alone.
How the values were obtained:
[1] = tested on: bone marrow transplant model of Bcr-Abl to induce CML in mice; test: Bone marrow transplant model of Bcr-Abl induced CML, survival; type: in vivo, mouse; settings: groups of 8 mice; two week treatment; compound A 80 mg/kg po qd, AMN107 75 mg/kg po qd or combination; FIG. 10
Procedure: A bone marrow transplant model of Bcr-Abl was used to induce CML in mice. Briefly, a bicistronic retroviral Bcr-Abl vector (Bcr-Abl-IRES-GFP) was used to produce virus to infect progenitor bone marrow (BM) cells collected from mice previously treated with 5-FU. After 3 rounds of infection, 200,000 GFP positive progenitor BM cells were transplanted into lethally irradiated hosts. Two weeks post-BMT, peripheral blood samples were analyzed by FACS analysis to establish the percentage of GFP positive cells present in the recipient mice. […] During the entire study period the mice were followed for any sign of leukemia development, such as hunched position, lost of body weight or inability of grooming. The animals were sacrificed when they reached any of the previously described signs.

[2] = tested on: mouse bone marrow cells infected with Bcr-abl retrovirus; test: Methylcellulose colony formation and re-plating of Bcr-Abl infected bone marrow cells; type: cell-based; settings: 72 h pre-treatment; for colony formation in the first methylcellulose plating: compared to control DMSO group, FIG. 8
Source text: Colony formation was scored 10 days after plating.
FIG. 9. Colonies obtained in the 1st plating experiment of FIG. 8 were resuspended and washed in PBS containing 10% FCS. Cells were resuspended in OPTI-MEM media and plated in methylcellulose at a concentration of 5000 cells per 35 mm plate. Colony formation was scored 10 days after plating.
Mouse bone marrow cells were infected with a bicistronic retroviral Bcr-Abl vector (Bcr-Abl-IRES-GFP). […] Clonogenic colony formation assays assess the self-renewal capacity of early progenitor/stem cells.

[3] = tested on: primary CD34+ CP CML cells; test: Colony forming assay and serial re-plating of primary CML cells; type: cell-based, human; settings: for proliferation index (PI) of re-plated colonies (AUC): 3d nilotinib and/or compound A exposure, 132 colonies per arm, compared to untreated cells, FIG. 7
Procedure: Primary cells were obtained from newly diagnosed and untreated patients with CML in chronic phase. These cells were enriched for CD34+using magnetic-activated cell sorting prior to cryopreservation in 10% DMSO and 4% human albumin solution in liquid nitrogen. Samples were thawed and washed in a solution of DNAse, human albumin solution, magnesium chloride, and phosphate buffered saline. Upon thaw primary cells were cultured in a serum free medium comprising of Iscove's Modified Dulbecco Medium with bovine serum albumin, insulin, transferring, P2 mercaptoethanol and growth factors (100 ng/mL Flt3-ligand, 100 ng/mL stem cell factor, 20 ng/mL interleukin (IL)-3, IL-6 and 50 ng/mL granulocyte-colony stimulating factor) for 24 hours.
Viable cells were enumerated using trypan blue dye exclusion and set up in culture in serum free medium (SFM) with the stated concentrations of Compound A and/or nilotinib. Following 72 hours (h) culture the cells were washed twice in phosphate buffered solution (PBS) and viable cells counted, again by trypan blue exclusion. These cells were then used for a series of colony forming and re-plating assays.
In the colony forming assay (CFA) a single cell suspension is created in semisolid media with appropriate cytokines. This enables the assessment of colony formation from each individual cell. In order to measure the effect of compound A and/or nilotinib on the relative abundance of CD34+ CP CML progenitor cells, CFA were set up in METHOCULT with cells plated at an initial concentration of 4000 cells per mL in duplicate. Colonies were identified and enumerated 14-16 days (d) following plating.
An accepted in vitro technique to approximate self-renewal activity is serial re-plating. Colonies derived from a CFA are individually plucked and re-dispersed in further METHOCULT. The capacity to reform colonies following re-dispersion is related to the number of primitive progenitors remaining within each individual colony and is therefore an indirect measurement of self-renewal. Following CFA 20-30 individual non-erythroid colonies from each experimental arm were then plucked with a p10 pipettor (one tip per colony using an inverted microscope) and carefully dispersed into 100 μL METHOCULT with a further 10 μL SFM in 96 well plates prior to incubation for a further 7d. Resultant secondary colonies were enumerated in each well and; in the case of wells containing secondary colonies; the entire contents were re-dispersed in a further 100 μL METHOCULT to assess tertiary colony formation.
Colony assays were performed in METHOCULT with cells plated at an initial concentration of 4000 cells per mL in duplicate. Colonies were identified and enumerated 14-16 days (d) following plating. […]

[4] = tested on: CML; settings: standard of therapy for CML; cited from earlier work

Cc1c(C(=O)Nc2ccc(N3C[C@@H](C)O[C@@H](C)C3)nc2)cccc1-c1ccc(OC(F)(F)F)cc1 [Compound A, 2-Methyl-4′-trifluoromethoxy-biphenyl-3-carboxylic acid [6-(cis-2,6-dimethyl-morpholin-4-yl)-pyridin-3-yl]-amide]
number of animals sacrificed to date [1]: all | colony number upon secondary re-plating of the colonies ([2]; FIG. 9): pronounced reduction in colony number | colony formation in the first methylcellulose plating [2]: No reduction of colony formation | re-plating capacity (total secondary and tertiary colonies as percentage of untreated control) ([3]; 72 h culture with drug, first and second re-plate, FIG. 1 and 2): reduction in re-plating capacity | proliferation index (PI) of re-plated colonies (AUC) ([3]; 4 experiments): reduction in PI

Cc1ccc(NC(=O)c2ccc(CN3CCN(C)CC3)cc2)cc1Nc1nccc(-c2cccnc2)n1 [Imatinib mesylate]
response rates [4]: more than 96%

Cc1cn(-c2cc(NC(=O)c3ccc(C)c(Nc4nccc(-c5cccnc5)n4)c3)cc(C(F)(F)F)c2)cn1 [nilotinib]
number of animals sacrificed to date [1]: 5 | colony formation in the first methylcellulose plating [2]: No reduction of colony formation | re-plating capacity (total number of secondary colonies) ([3]; 3d exposure, Compound A 10 nM and/or nilotinib 5 μM, 4 experiments, FIG. 6): non-significant increase in re-plating capacity | proliferation index (PI) of re-plated colonies (AUC) ([3]; 4 experiments): relative increase in PI
